Here are results for two compounds from US12709731B2, “Method of producing biological material” (NTT, Inc., priority 2021, dated 2026).

Holding throughout (type): cell-based
Experiment [1] has as its system Cyanidioschyzon merolae. In words: Test 1: color of microorganism-containing liquid after suspension culture with regulator. Particulars: for contribution to a reduction of light-harvesting pigments: added to MA2 culture medium, 18 hours culture, judged from color in FIG. 3; for color of the microorganism-containing liquid after cultivation (FIG. 3): MA2 culture medium, light condition, 18 hours after addition. The protocol: Unicellular red algae were cultured in suspension under a light condition and a regulator was added thereto. An MA2 culture medium was used as a culture medium. Cyanidioschyzon merolae were used as unicellular red algae. Dimethyl 2-oxoglutarate was used as the regulator. Then, after the regulator was added, the culture was further continued for 18 hours.
The above-mentioned cultivation was carried out for each case where the final concentrations of dimethyl 2-oxoglutarate were adjusted to 10, 20, 40 and 80 mmmol/L (=mM). In addition, cultivation was also carried out in a similar manner except that the addition of dimethyl 2-oxoglutarate was omitted.
Thereafter, each of microorganism-containing liquids containing unicellular red algae and the culture medium was imaged.
In addition, cultivation was carried out in a similar manner except that 2-oxoglutaric acid was used instead of using dimethyl 2-oxoglutarate. Thereafter, each of dispersion microorganism-containing liquids containing unicellular red algae and the culture medium was imaged.
FIG. 3 is an image obtained by imaging the microorganism-containing liquids after cultivation. In FIG. 3, “2-OG” and “dimethyl 2-OG” represent 2-oxoglutaric acid and dimethyl 2-oxoglutarate, respectively.

In experiment [2] the test system is Cyanidioschyzon merolae. In words: Test 2: amount of chlorophyll a in microorganism-containing liquid after addition of regulator. The conditions noted are these: final concentration 2 mmol/L; immediately before, 6 hours and 24 hours after addition; average of three independent tests; control increased. The protocol: Unicellular red algae were cultured in suspension under a light condition and a regulator was added thereto. An MA2 culture medium was used as a culture medium. Cyanidioschyzon merolae were used as unicellular red algae. Dimethyl 2-oxoglutarate was used as the regulator. The regulator was added so that the final concentration of dimethyl 2-oxoglutarate was 2 mmol/L. After the regulator was added, the cultivation was further continued. Then, the amounts of chlorophyll a contained in the microorganism-containing liquids were determined immediately before the regulator was added, 6 hours after the regulator was added, and 24 hours after the regulator was added. In addition, in parallel with the cultivation, cultivation was carried out as described above in a similar manner except that no regulator was added. The amount of chlorophyll a contained in the microorganism-containing liquid was also determined in the same manner as described above. FIG. 4 is a graph showing an example of the effect of the addition of the regulator on the amounts of chlorophyll a. […] Furthermore, “dimethyl 2-OG” indicates the results obtained for unicellular red algae cultured by adding dimethyl 2-oxoglutarate to the culture medium as a regulator.

The test system of experiment [3] is Cyanidioschyzon merolae. In words: Test 3: amount of phycocyanin in microorganism-containing liquid after addition of regulator. The conditions noted are these: final concentration 2 mmol/L; every culture time as in test 2 (0, 6, 24 hours); average of three independent tests; control increased. The protocol: Cultivation was carried out in a similar manner to that in the test 2 and the amounts of phycocyanin contained in the microorganism-containing liquids were determined in every culture time. FIG. 5 is a graph showing an example of the effect of the addition of a regulator on the amount of phycocyanin. […] Furthermore, “dimethyl 2-OG” indicates the results obtained for unicellular red algae cultured by adding dimethyl 2-oxoglutarate to the culture medium as a regulator.

Where [4] appears, read: final concentrations 10, 20, 40 and 80 mmmol/L (=mM), compared with no regulator added.

Regarding `O=C(O)CCC(=O)C(=O)O` [2-oxoglutaric acid, 2-Oxoglutaric acid, reference compound], the “contribution to a reduction of light-harvesting pigments” value in experiment [1] is given as “little contributed”. Also, the “color of the microorganism-containing liquid after cultivation (FIG. 3)” value in experiment [1] (setting [4]) is reported as “the same color as that in the case with no regulator added”.

Take `COC(=O)CCC(=O)C(=O)OC` [dimethyl 2-oxoglutarate]: the “contribution to a reduction of light-harvesting pigments” value in experiment [1] is recorded as “greatly contributes”. Further, the “color of the microorganism-containing liquid after cultivation (FIG. 3)” value in experiment [1] (final concentration 20 mmol/L or higher) was “substantially colorless”; in experiment [1] (setting [4]) it was “lighter than those of the microorganism-containing liquids with no regulator added”. In experiment [2], the “amount of chlorophyll a contained in the microorganism-containing liquid (FIG. 4)” value was “decreased according to the culture time”. The “amount of phycocyanin contained in the microorganism-containing liquid (FIG. 5)” value in experiment [3] is “decreased according to the culture time”.
